Source: US9040524B2, “Antifungal 5,6-dihydro-4H-pyrrolo[1,2-a][1,4]-benzodiazepines and 6H-pyrrolo[1,2-a][1,4]benzodiazepines substituted with bicycle benzene derivatives” (JANSSEN PHARMACEUTICA NV, priority 2010, dated 2015)

How the values were obtained:
Format in all cases: cell-based
[1] = test system: Candida parapsilosis; assay: Antifungal activity in vitro, resazurin growth inhibition screen: Candida parapsilosis; conditions: Candida parapsilosis B66126; for IC50: Lodderomyces parapsilosis, read-out: Inf. D pIC50 (converted)
Experimental: (§1) The standard susceptibility screen was performed in 96-well plates (U-bottom, Greiner Bio-One). Serial dilutions (2-fold or 4-fold) of 20 mM compound stock solutions were made in 100% DMSO, followed by an intermediate dilution step in water. These serial dilutions (10 μl) were then spotted onto test-plates that could be stored in the dark at 4° C. for a maximum period of 2 weeks. An adequate broad dose-range was included with 64 μM as the highest in-test concentration. […] The different fungal species/isolates (Table 3a) were cryopreserved and 1/1000 diluted in medium just prior to use. A standard inoculum of 200 μl containing 10^3 colony-forming unit (cfu) was then added to each well. A positive control (100% growth=fungal culture without antifungal) and a negative control (0% growth=RPMI-MOPS medium) were included on each plate.

[2] = test system: Microsporum canis; assay: Antifungal activity in vitro, resazurin growth inhibition screen: Microsporum canis; conditions: Microsporum canis B68128; for IC50: read-out: Inf. B pIC50 (converted)
Experimental: as §1

[3] = test system: Cryptococcus neoformans; assay: Antifungal activity in vitro, resazurin growth inhibition screen: Cryptococcus neoformans; conditions: Cryptococcus neoformans B66663; for IC50: read-out: Inf. F pIC50 (converted)
Experimental: as §1

[4] = test system: Trichophyton mentagrophytes; assay: Antifungal activity in vitro, resazurin growth inhibition screen: Trichophyton mentagrophytes; conditions: Trichophyton mentagrophytes B70554; for IC50: read-out: Inf. G pIC50 (converted)
Experimental: as §1

[5] = test system: Sporothrix schenkii; assay: Antifungal activity in vitro, resazurin growth inhibition screen: Sporothrix schenkii; conditions: Sporothrix schenkii B62482; for IC50: read-out: Inf. A pIC50 (converted)
Experimental: as §1

[6] = test system: Aspergillus fumigatus; assay: Antifungal activity in vitro, resazurin growth inhibition screen: Aspergillus fumigatus; conditions: Aspergillus fumigatus B42928; for IC50: read-out: Inf. E pIC50 (converted)
Experimental: as §1

[7] = test system: Trichophyton rubrum; assay: Antifungal activity in vitro, resazurin growth inhibition screen: Trichophyton rubrum; conditions: Trichophyton rubrum B68183; for IC50: read-out: Inf. C pIC50 (converted)
Experimental: as §1

SMILES	Inf. D pIC50 [1]	Inf. B pIC50 [2]	Inf. F pIC50 [3]	Inf. G pIC50 [4]	Inf. A pIC50 [5]	Inf. E pIC50 [6]	Inf. C pIC50 [7]	IC50 [1]	IC50 [2]	IC50 [3]	IC50 [4]	IC50 [5]	IC50 [6]	IC50 [7]
Clc1cccc2c1CN=C(c1ccc3c(c1)OCO3)c1cccn1-2 [Compound 10, 4-(1,3-benzodioxol-5-yl)-7-chloro-6H-pyrrolo[1,2-a][1,4]benzo-diazepine]	<4.19	5.00	4.48	5.30	<4.19	<4.19	5.70	–	–	–	–	–	–	–
FC1(F)CCc2cc(C3=NCc4c(Cl)cccc4-n4cccc43)ccc21 [Compound 66, 7-chloro-4-(1,1-difluoro-2,3-dihydro-1H-inden-5-yl)-6H-pyrrolo[1,2-a][1,4]benzo-diazepine]	5.55	4.49	6.11	<4.19	4.46	5.09	<4.19	–	–	–	–	–	–	–
FC1(F)CCc2cc(C3=NCc4cccc(Cl)c4-n4cccc43)ccc21 [Compound 68, 10-chloro-4-(1,1-difluoro-2,3-dihydro-1H-inden-5-yl)-6H-pyrrolo[1,2-a][1,4]benzo-diazepine]	<4.19	<4.19	<4.19	<4.19	<4.19	4.19	<4.19	–	–	–	–	–	–	–
Cl.Clc1cccc2c1CNC(c1ccc3c(c1)CCO3)c1cccn1-2 (stereo not drawn) [Compound 26, 7-chloro-4-(2,3-dihydro-5-benzofuranyl)-5,6-dihydro-4H-pyrrolo[1,2-a][1,4]benzo-diazepine .HCl]	4.25	6.00	<4.19	5.70	<4.19	4.85	6.25	–	–	–	–	–	–	–
Fc1cc(F)c2c(c1)-n1cccc1C(c1ccc3c(c1)CCC(F)(F)O3)=NC2 [Compound 73, 4-(2,2-difluoro-3,4-dihydro-2H-1-benzopyran-6-yl)-7,9-difluoro-6H-pyrrolo[1,2-a]-[1,4]benzodiazepine]	–	–	–	–	–	–	–	2.14 µM	9.33 µM	4.68 µM	32.4 µM	31.6 µM	> 64.6 µM	32.4 µM
Clc1cccc2c1CNC(c1ccc3c(c1)OCO3)c1cccn1-2 (stereo not drawn) [Compound 3, 4-(1,3-benzodioxol-5-yl)-7-chloro-5,6-dihydro-4H-pyrrolo[1,2-a][1,4]benzo-diazepine]	<4.19	4.91	4.30	4.71	<4.19	<4.19	4.47	–	–	–	–	–	–	–
FC1(F)CCc2cc(C3=NCc4cccc(Cl)c4-n4cccc43)ccc2O1 [Compound 72, 10-chloro-4-(2,2-difluoro-3,4-dihydro-2H-1-benzopyran-6-yl)-6H-pyrrolo[1,2-a]-[1,4]benzodiazepine]	–	–	–	–	–	–	–	11 µM	0.407 µM	0.38 µM	1.62 µM	2.63 µM	0.617 µM	0.407 µM
Clc1ccc2c(c1Cl)CN=C(c1ccc3c(c1)CCO3)c1cccn1-2 [Compound 44, 7,8-dichloro-4-(2,3-dihydro-5-benzofuranyl)-6H-pyrrolo[1,2-a][1,4]benzodiazepine]	–	–	–	–	–	–	–	12 µM	5.01 µM	7.08 µM	7.94 µM	5.01 µM	> 64.6 µM	5.01 µM
Clc1ccc2c(c1)-n1cccc1C(c1ccc3c(c1)CCCO3)=NC2 [Compound 42, 9-chloro-4-(3,4-dihydro-2H-1-benzopyran-6-yl)-6H-pyrrolo[1,2-a][1,4]benzo-diazepine]	5.63	4.49	6.82	<4.19	5.10	<4.19	<4.19	–	–	–	–	–	–	–
FC1(F)CCc2cc(C3=NCc4ccc(Cl)cc4-n4cccc43)ccc2O1 [Compound 71, 9-chloro-4-(2,2-difluoro-3,4-dihydro-2H-1-benzopyran-6-yl)-6H-pyrrolo[1,2-a]-[1,4]benzodiazepine]	–	–	–	–	–	–	–	8.13 µM	0.617 µM	0.1 µM	0.309 µM	1.95 µM	0.219 µM	0.269 µM
Cl.Fc1cccc2c1CNC(c1ccc3c(c1)CCOC3)c1cccn1-2 (stereo not drawn) [Compound 29, 4-(3,4-dihydro-1H-2-benzopyran-6-yl)-7-fluoro-5,6-dihydro-4H-pyrrolo[1,2-a]-[1,4]benzodiazepine .HCl]	<4.19	<4.19	<4.19	<4.19	<4.19	<4.19	4.44	–	–	–	–	–	–	–
Br.Clc1ccc2c(c1)-n1cccc1C(c1ccc3c(c1)OCO3)NC2 (stereo not drawn) [Compound 6, 4-(1,3-benzodioxol-5-yl)-9-chloro-5,6-dihydro-4H-pyrrolo[1,2-a][1,4]benzo-diazepine .HBr]	<4.19	5.00	5.10	4.50	4.21	<4.19	5.15	–	–	–	–	–	–	–
Br.COc1cc2c(cc1C1NCc3c(Cl)cccc3-n3cccc31)OC(C)C2 (stereo not drawn) [Compound 49, 7-chloro-4-(2,3-dihydro-5-methoxy-2-methyl-6-benzofuranyl)-5,6-dihydro-4H-pyrrolo[1,2-a][1,4]benzodiazepine .HBr]	<4.19	5.05	4.34	–	<4.19	<4.19	5.10	–	–	–	–	–	–	–
Br.CCOc1cc2c(cc1C1NCc3c(Cl)cccc3-n3cccc31)CCC2 (stereo not drawn) [Compound 14, 7-chloro-4-(6-ethoxy-2,3-dihydro-1H-inden-5-yl)-5,6-dihydro-4H-pyrrolo[1,2-a]-[1,4]benzodiazepine .HBr]	<4.19	5.10	4.82	–	<4.19	<4.19	5.52	–	–	–	–	–	–	–
Br.c1ccc2c(c1)CNC(c1ccc3c(c1)OCO3)c1cccn1-2 (stereo not drawn) [Compound 2, 4-(1,3-benzodioxol-5-yl)-5,6-dihydro-4H-pyrrolo[1,2-a][1,4]benzodiazepine .HBr]	<4.19	4.42	<4.19	–	<4.19	<4.19	4.96	–	–	–	–	–	–	–
Br.Clc1ccc2c(c1)CNC(c1ccc3c(c1)OCO3)c1cccn1-2 (stereo not drawn) [Compound 5, 4-(1,3-benzodioxol-5-yl)-8-chloro-5,6-dihydro-4H-pyrrolo[1,2-a][1,4]benzo-diazepine .HBr]	<4.19	5.11	4.42	–	<4.19	<4.19	5.05	–	–	–	–	–	–	–
Br.Clc1cccc2c1CNC(c1ccc3c(c1)OCO3)c1cccn1-2 (stereo not drawn) [Compound 4, 4-(1,3-benzodioxol-5-yl)-7-chloro-5,6-dihydro-4H-pyrrolo[1,2-a][1,4]benzo-diazepine .HBr]	<4.19	5.09	4.38	–	<4.19	<4.19	5.70	–	–	–	–	–	–	–
